35 compounds from patent US8716475B2, “2-aminopyrimidine modulators of the histamine H4 receptor” (Janssen Pharmaceutica NV, priority 2007, dated 2014) can be followed below.

Where only a bound is given, the exact number is not on record here.

In one experiment the target is T1, human H4 receptor (Homo sapiens, UniProt Q9H3N8).
T1 construct: expressed in transfected cells
T1 sequence (Q9H3N8 whole entry): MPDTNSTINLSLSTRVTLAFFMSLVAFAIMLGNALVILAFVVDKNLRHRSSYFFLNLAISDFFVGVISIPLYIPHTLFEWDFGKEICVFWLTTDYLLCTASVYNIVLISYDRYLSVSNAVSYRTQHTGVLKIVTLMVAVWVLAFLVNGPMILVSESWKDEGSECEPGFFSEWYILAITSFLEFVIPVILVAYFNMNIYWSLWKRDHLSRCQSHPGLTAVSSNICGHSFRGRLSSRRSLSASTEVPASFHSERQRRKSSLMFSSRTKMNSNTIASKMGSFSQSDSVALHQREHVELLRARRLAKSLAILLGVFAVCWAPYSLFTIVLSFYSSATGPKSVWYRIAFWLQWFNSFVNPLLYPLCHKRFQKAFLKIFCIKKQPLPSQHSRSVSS
Put plainly: Binding Assay on Recombinant Human Histamine H4 Receptor. The note with it: Table 1; [3H] histamine competition binding, membranes of SK-N-MC cells transfected with human H4 receptor; average of results. In a few lines:
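Radioligand binding used membranes from SK-N-MC cells stably or transiently expressing human H4, prepared in 50 mM Tris/5 mM EDTA. Nonspecific binding was defined with 100 μM histamine. Bound radioactivity was counted after filtration on PEI-treated GF/C filters, and ">" values are the highest concentration tested.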
Consider `CC(C)c1cc(N2CC[C@@H](N)C2)nc(N)n1` [Example 12, (R)-4-(3-Amino-pyrrolidin-1-yl)-6-isopropyl-pyrimidin-2-ylamine], for which the Ki came out at 18 nM.

For the compound `CN[C@@H]1CCN(c2cc(C(C)C)nc(N)n2)C1` [Example 11, (R)-4-Isopropyl-6-(3-methylamino-pyrrolidin-1-yl)-pyrimidin-2-ylamine], the Ki was determined as 12 nM. Same read-out and setting: with `CN1CCN(c2nc(N)nc3c2CCC3)CC1` [Example 74, 4-(4-Methyl-piperazin-1-yl)-6,7-dihydro-5H-cyclopentapyrimidin-2-ylamine] the figure was 76 nM; with `Cc1cc(N2CC3CCCNC3C2)nc(N)n1` (stereo not drawn) [Example 24, 4-Methyl-6-(cis-octahydro-pyrrolo[3,4-b]pyridin-6-yl)-pyrimidin-2-ylamine], 49 nM; with `Nc1nc(C2CCCC2)cc(N2CCC[C@@H](N)C2)n1` [Example 3, (R)-4-(3-Amino-piperidin-1-yl)-6-cyclopentyl-pyrimidin-2-ylamine], 257 nM. In the case of `CNC1CN(c2cc(C(C)C)nc(N)n2)CC1O` (stereo not drawn) [Example 13, trans-1-(2-Amino-6-isopropyl-pyrimidin-4-yl)-4-methylamino-pyrrolidin-3-ol], the Ki was 631 nM. As to `Nc1nc2c(c(N3C[C@H]4CCCN[C@H]4C3)n1)CCCC2` [Example 72, (R,R)-4-(Octahydro-pyrrolo[3,4-b]pyridin-6-yl)-5,6,7,8-tetrahydro-quinazolin-2-ylamine], the Ki is 14 nM. For `CCc1cc(N2CCN(C)CC2)nc(N)n1` [Example 34, 4-Ethyl-6-(4-methyl-piperazin-1-yl)-pyrimidin-2-ylamine], the Ki worked out at 6 nM. Regarding `Cc1nc(N)nc(N2CC[C@@H](N)C2)c1C` [Example 27, (R)-4-(3-Amino-pyrrolidin-1-yl)-5,6-dimethyl-pyrimidin-2-ylamine], the Ki was greater than 10000 nM. With `CN1CCN(c2cc(Cc3ccccc3)nc(N)n2)CC1` [Example 63, 4-Benzyl-6-(4-methyl-piperazin-1-yl)-pyrimidin-2-ylamine], the Ki was determined as 21 nM.

With `CC(C)c1cc(N2C[C@H]3CCN[C@H]3C2)nc(N)n1` [Example 17, (R,R)-4-(Hexahydro-pyrrolo[3,4-b]pyrrol-5-yl)-6-isopropyl-pyrimidin-2-ylamine], the Ki is 59 nM.

Staying with this experiment, now noted: Table 2, data marked with an asterisk (*): obtained by the cell harvester method; [3H] histamine competition binding, SK-N-MC membranes.
Take `CN(CCN)c1cc(Cc2ccccc2)nc(N)n1` [Example 250, N^4-(2-Amino-ethyl)-6-benzyl-N^4-methyl-pyrimidine-2,4-diamine]: the Ki is 564 nM. The same measure, in the same setting: with `CN(CCN)c1cc(C(C)(C)C)nc(N)n1` [Example 131, N^4-(2-Amino-ethyl)-6-tert-butyl-N^4-methyl-pyrimidine-2,4-diamine] the figure was 412 nM.

Still in this experiment, the particulars now being: Table 2; [3H] histamine competition binding, membranes of SK-N-MC cells transfected with human H4 receptor; average of results.
As for `CC(C)(C)c1cc(N2CC3CCC(C2)N3)nc(N)n1` [Example 134, 4-tert-Butyl-6-(3,8-diaza-bicyclo[3.2.1]oct-3-yl)-pyrimidin-2-ylamine], the Ki was 130 nM. As to `Nc1nc(Cc2ccccc2)cc(N2CC(N)C2)n1` [Example 166, 4-(3-Amino-azetidin-1-yl)-6-benzyl-pyrimidin-2-ylamine], the Ki stood at 52 nM. For `Nc1nc(CCc2ccccc2)cc(N2CC[C@@H](N)C2)n1` [Example 178, (R)-4-(3-Amino-pyrrolidin-1-yl)-6-phenethyl-pyrimidin-2-ylamine], the Ki worked out at 9 nM. The same measure, in the same setting: with `COCc1cc(NCCN)nc(N)n1` [Example 219, N^4-(2-Amino-ethyl)-6-methoxymethyl-pyrimidine-2,4-diamine] the figure was 890 nM; with `Nc1nc(C2Cc3ccccc3C2)cc(N2CCNCC2)n1` [Example 165, 4-Indan-2-yl-6-piperazin-1-yl-pyrimidin-2-ylamine], 2 nM; with `CC(C)c1cc(N2CC[C@H](N)C2)nc(N)n1` [Example 126, (S)-4-(3-Amino-pyrrolidin-1-yl)-6-isopropyl-pyrimidin-2-ylamine], 23 nM. Consider `CC(C)OCc1cc(N2CCN(C)CC2)nc(N)n1` [Example 246, 4-Isopropoxymethyl-6-(4-methyl-piperazin-1-yl)-pyrimidin-2-ylamine], for which the inhibition constant Ki was determined as 32 nM.

As for `Nc1nc(C2Cc3ccccc3C2)cc(N2C[C@H]3CNC[C@H]3C2)n1` [Example 173, 4-(cis-Hexahydro-pyrrolo[3,4-c]pyrrol-2-yl)-6-indan-2-yl-pyrimidin-2-ylamine], the Ki is 2070 nM.

For the compound `Nc1nc2c(c(N3CCNCC3)n1)COCC2` [Example 100, 4-piperazin-1-yl-7,8-dihydro-5H-pyrano[4,3-d]pyrimidin-2-ylamine], the Ki stood at 262 nM. The same measure, in the same setting: with `Nc1nc(Cc2cccs2)cc(N2CC[C@@H](N)C2)n1` [Example 216, (R)-4-(3-Amino-pyrrolidin-1-yl)-6-thiophen-2-ylmethyl-pyrimidin-2-ylamine] the figure was 32 nM. The same measure, in the same setting: for `CC(C)(C)c1cc(N2CC[C@@H](N)C2)nc(N)n1` [Example 127, (R)-4-(3-Amino-pyrrolidin-1-yl)-6-tert-butyl-pyrimidin-2-ylamine] the value was 9 nM; for `CC(C)c1cc(N2CC(N)C2)nc(N)n1` [Example 90, 4-(3-Amino-azetidin-1-yl)-6-isopropyl-pyrimidin-2-ylamine], 14 nM.

Take `CC1(c2cc(N3CCNCC3)nc(N)n2)CCOCC1` [Example 153, 4-(4-Methyl-tetrahydro-pyran-4-yl)-6-piperazin-1-yl-pyrimidin-2-ylamine]: the Ki stood at 97 nM. The same measure, in the same setting: for `CN[C@@H]1CCN(c2cc(CC(C)C)nc(N)n2)C1` [Example 148, (R)-4-Isobutyl-6-(3-methylamino-pyrrolidin-1-yl)-pyrimidin-2-ylamine] the value was 1 nM. As to `NCCNc1cc(C2CC2c2ccccc2)nc(N)n1` (stereo not drawn) [Example 159, N^4-(2-Amino-ethyl)-6-(trans-2-phenyl-cyclopropyl)-pyrimidine-2,4-diamine], the Ki came to 42 nM. For `CN[C@@H]1CCN(c2cc(Cc3ccsc3)nc(N)n2)C1` [Example 208, (R)-4-(3-Methylamino-pyrrolidin-1-yl)-6-thiophen-3-ylmethyl-pyrimidin-2-ylamine], the Ki came to 8 nM. Take `CCOCc1cc(N2CCN(C)CC2)nc(N)n1` [Example 239, 4-Ethyoxymethyl-6-(4-methyl-piperazin-1-yl)-pyrimidin-2-ylamine]: the Ki was found to be 29 nM. On the same count and under the same terms, for `CCCCc1cc(N2CC[C@@H](N)C2)nc(N)n1` [Example 135, (R)-4-(3-Amino-pyrrolidin-1-yl)-6-butyl-pyrimidin-2-ylamine] the value was 4 nM. In the case of `CN[C@@H]1CCN(c2cc(C3CC3c3ccccc3)nc(N)n2)C1` (stereo in doubt) [Example 160, (R)-4-(3-Methylamino-pyrrolidin-1-yl)-6-(trans-2-phenyl-cyclopropyl)-pyrimidin-2-ylamine], the Ki was 3 nM. On the same count and under the same terms, for `CN1CCN(c2cc(CC3CCCO3)nc(N)n2)CC1` (centres unmarked) [Example 227, 4-(4-Methyl-piperazin-1-yl)-6-(tetrahydro-furan-2-ylmethyl)-pyrimidin-2-ylamine] the value was 17 nM; for `CN[C@@H]1CCN(c2cc(Cc3ccncc3)nc(N)n2)C1` [Example 205, (R)-4-(3-Methylamino-pyrrolidin-1-yl)-6-pyridin-4-ylmethyl-pyrimidin-2-ylamine], 230 nM; for `Cc1nc(N)nc(N(C)CCN)c1F` [Example 203, N^4-(2-Amino-ethyl)-5-fluoro-6,N^4-dimethyl-pyrimidine-2,4-diamine], 4230 nM.
